Data reported in US12697325B2 (TENNOR THERAPEUTICS (SUZHOU) LIMITED, priority 2021, dated 2026).

Experiments:
[1] = 2 g, q8 h via infusion for 3 h; cited from earlier work
[2] = tested on: Acinetobacter baumannii strains; experiment: Minimum inhibitory concentration (CLSI M07), Example 2, 20 strains; type: cell-based
Protocol: The minimum inhibitory concentration (MIC) was determined in accordance with the requirements of the Clinical and Laboratory Standards Institute (CLSI) M07 (for aerobic bacteria).
3.1 The compounds were diluted with DMSO up to 100 times of the highest concentration tested.
The steps of manual dilution are as follows (example): firstly, the compound or antibiotic was diluted to 100 times of the maximum final concentration tested, then 60 μL of compound mother liquor was added to the first column of the 96-well plate, and 30 μL of DMSO was added to each well in the second to the 12th column; 30 μL of the liquid was transferred from the first column to the second column. After being pipetted up and down to even, 30 μL was transferred to the third column, and was diluted in sequence at a 2-fold gradient for a total of 10 times; then 30 μL was removed from each well in the 11th column, then a compound solution diluted at 2-fold gradient was obtained and 1 μL was transferred to a 96-well test plate.
Aerobic bacteria: the strains were inoculated on MHA one day in advance and incubated overnight at 37° C. On the day of the assay, 5-6 single colonies were picked and suspended evenly in saline, and the bacterial concentration was adjusted to the turbidity of 0.5 McFarland standard (concentration is about 1×10^8 CFU/mL). The bacterial suspension was diluted at 200-fold with the corresponding liquid culture medium (Table 1), i.e., the bacterial concentration was ~5×10^5 CFU/ml, and then 100 μL of the liquid was transferred to a 96-well round bottom plate (the 96-well plate with compound prepared in 4.2, Echo method) to obtain the test plate. If the compound was manually diluted, then 99 μL of the solution was transferred into a 96-well round bottom plate. The 96-well round bottom plate obtained above was placed into an incubator at 37° C. and 85% humidity to incubate for 20 h.

[3] = cited from earlier work

CC1(C)[C@H](C(=O)O)N2C(=O)C[C@H]2S1(=O)=O [Sulbactam, (2S, 5R)-3,3-dimethyl-7-oxo-4-thia-1-azabicyclo [3.2.0] heptane-2-carboxylic acid 4,4-dioxide]
Part of the dosing interval with plasma concentration above 2 μg/mL [1]: 44% | Part of the dosing interval with plasma concentration above 4 μg/mL [1]: 19% | MIC of the strain BAA-1795 (component in the combination) ([2]; strain BAA-1795, sulbactam/avibactam 4:1, concentration of the named component): 8 µg/mL | MIC90 of the single component in the combination ([2]; sulbactam sodium:avibactam sodium = 4:1, concentration of the named component): 16 µg/mL | MIC50 of the single component in the combination ([2]; sulbactam sodium:avibactam sodium = 4:1, concentration of the named component, Examples 1 and 2): 8 µg/mL | Protein binding [3]: approximately 5.2%
